What was measured:
Format in all cases: in vivo
[1] = system: Abutilon theophrasti (ABUTH); assay: Post-emergence herbicidal action, greenhouse pot test; settings: rated visually after about 3 weeks vs untreated controls, 100% = plants have died
Summary of the method: (§1)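 Greenhouse-grown weeds in sandy loam were sprayed post-emergence at the one-leaf stage, 2–3 weeks after sowing. Compounds were formulated as WP or EC in water with 0.5% additive at 600 l/ha, at rates of 20 g/ha or less. Visual rating after about 3 weeks used a scale from 0% (like untreated control) to 100% (plants dead).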

[2] = system: Amaranthus retroflexus (AMARE); assay: as above; settings: rated visually after about 3 weeks vs untreated controls, 100% = plants have died
Summary of the method: as §1

Avena fatua (AVEFA) = assay: as above; settings: 20 g/ha, rated visually after about 3 weeks vs untreated controls, 100% = plants have died
Summary of the method: as §1

Lolium rigidum (LOLRI) = assay: as above; settings: dosage 20 g/ha
Summary of the method: as §1

[3] = system: Pharbitis purpurea (PHBPU); assay: as above
Summary of the method: as §1

[4] = system: Polygonum convolvulus (POLCO); assay: as above
Summary of the method: as §1

Veronica persica (VERPE) = assay: as above
Summary of the method: as §1

Viola tricolor (VIOTR) = assay: as above
Summary of the method: as §1

[5] = system: Alopecurus myosuroides (ALOMY); assay: Post-emergence herbicidal action, greenhouse pot test (also comparative test C); settings: rated visually after about 3 weeks vs untreated controls, 100% = plants have died
Summary of the method: (§2)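 Visual rating against untreated controls, about 3 weeks after spraying, from 0% (like control) to 100% (plants dead). Weeds were treated at the one-leaf stage, 2–3 weeks after sowing in sandy loam, with aqueous WP/EC spray containing 0.5% additive at 600 l/ha. Doses were ≤20 g/ha, or ≤5 g/ha for comparative test C.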

[6] = system: Echinochloa crus-galli (ECHCG); assay: as above
Summary of the method: as §2

[7] = system: Matricaria inodora (MATIN); assay: as above
Summary of the method: as §2

Setaria viridis (SETVI) = assay: as above
Summary of the method: as §2

Glycine max (GLXMA) = assay: Post-emergence crop plant compatibility, greenhouse pot test; settings: 1.25 g/ha
Summary of the method: (§3)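 Crop plants grown in sandy loam in the greenhouse were sprayed post-emergence at the one-leaf stage, 2–3 weeks after sowing, with WP or EC formulations as aqueous suspension/emulsion plus 0.5% additive at 600 l/ha. Damage was rated visually about 3 weeks later versus untreated controls (0% = like control, 100% = plants dead).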

[8] = system: Triticum aestivum (TRZAS); assay: as above; settings: vs untreated controls
Summary of the method: as §3

Zea mays (ZEAMX) = assay: as above; settings: vs untreated controls
Summary of the method: as §3

Oryza sativa (ORYSA) = assay: Post-emergence crop plant compatibility, greenhouse pot test (also comparative test C); settings: for Post-emergence action against ORYSA (crop plant compatibility): vs untreated controls
Summary of the method: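 Rice and other crops sprayed post-emergence at one-leaf stage (2–3 weeks after sowing) with WP or EC formulations plus 0.5% additive at 600 l/ha water. Visual rating about 3 weeks later versus untreated controls (100% = dead, 0% = like control); suffixes a–c denote different doses.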

## COCCOCCOC(=O)COc1ccccc1Oc1cc(-n2c(=O)cc(C(F)(F)F)n(C)c2=O)c(F)cc1[N+](=O)[O-] [I.6-23]
[1]; 1.25 g/ha
  Post-emergence action at 1.25 g/ha against ABUTH in %: 100%
[1]; 5 g/ha
  Post-emergence action at 5 g/ha against ABUTH in %: 100%
[1]; 20 g/ha
  Post-emergence action at 20 g/ha against ABUTH in %: 100%
[2]; 1.25 g/ha
  Post-emergence action at 1.25 g/ha against AMARE in %: 100%
[2]; 5 g/ha
  Post-emergence action at 5 g/ha against AMARE in %: 100%
[2]; 20 g/ha
  Post-emergence action at 20 g/ha against AMARE in %: 100%
Avena fatua (AVEFA)
  Post-emergence action at 20 g/ha against AVEFA in %: 90%
Lolium rigidum (LOLRI)
  Post-emergence action against LOLRI in %: 90%
[3]; dosage 1.25 g/ha
  Post-emergence action against PHBPU in %: 80%
[3]; dosage 5 g/ha
  Post-emergence action against PHBPU in %: 90%
[3]; dosage 20 g/ha
  Post-emergence action against PHBPU in %: 100%
[4]; dosage 1.25 g/ha
  Post-emergence action against POLCO in %: 90%
[4]; dosage 5 g/ha
  Post-emergence action against POLCO in %: 100%
[4]; dosage 20 g/ha
  Post-emergence action against POLCO in %: 100%
Veronica persica (VERPE); 1.25 g/ha
  Post-emergence action against VERPE: 100%
Veronica persica (VERPE); 5 g/ha
  Post-emergence action against VERPE: 100%
Veronica persica (VERPE); 20 g/ha
  Post-emergence action against VERPE: 100%
Viola tricolor (VIOTR); 1.25 g/ha
  Post-emergence action against VIOTR: 100%
Viola tricolor (VIOTR); 5 g/ha
  Post-emergence action against VIOTR: 100%
Viola tricolor (VIOTR); 20 g/ha
  Post-emergence action against VIOTR: 100%
[5]; 5 g/ha
  Post-emergence action at 5 g/ha against ALOMY in %: 80%
[5]; 20 g/ha
  Post-emergence action at 20 g/ha against ALOMY in %: 90%
[6]; 1.25 g/ha, rated visually after about 3 weeks vs untreated controls, 100% = plants have died
  Post-emergence action at 1.25 g/ha against ECHCG in %: 80%
[6]; dosage 5 g/ha
  Post-emergence action against ECHCG in %: 90%
[6]; dosage 20 g/ha
  Post-emergence action against ECHCG in %: 100%
[7]; dosage 1.25 g/ha
  Post-emergence action against MATIN in %: 80%
[7]; dosage 5 g/ha
  Post-emergence action against MATIN in %: 100%
[7]; dosage 20 g/ha
  Post-emergence action against MATIN in %: 100%
Setaria viridis (SETVI); 20 g/ha
  Post-emergence action against SETVI: 100%
Setaria viridis (SETVI); dosage 1.25 g/ha
  Post-emergence action against SETVI in %: 100%
Setaria viridis (SETVI); dosage 5 g/ha
  Post-emergence action against SETVI in %: 100%
Glycine max (GLXMA)
  Post-emergence action against GLXMA in %: 20%
[8]; 1.25 g/ha
  Post-emergence action against TRZAS (crop plant compatibility): 10%
[8]; 5 g/ha
  Post-emergence action against TRZAS (crop plant compatibility): 20%
[8]; 20 g/ha
  Post-emergence action against TRZAS (crop plant compatibility): 20%
Zea mays (ZEAMX); 1.25 g/ha
  Post-emergence action against ZEAMX (crop plant compatibility): 10%
Zea mays (ZEAMX); 5 g/ha
  Post-emergence action against ZEAMX (crop plant compatibility): 20%
Oryza sativa (ORYSA); 1.25 g/ha
  Post-emergence action against ORYSA (crop plant compatibility): 0%
Oryza sativa (ORYSA); 5 g/ha
  Post-emergence action against ORYSA (crop plant compatibility): 10%
Oryza sativa (ORYSA); 20 g/ha, crop plant compatibility
  Post-emergence action against ORYSA in %: 20%
